This note sets out measurements from patent US8906925B2, “Pyrido[4,3-B]indoles containing rigid moieties” (Medivation Technologies, Inc., priority 2008, dated 2014).

Structures are written as SMILES. Where two headings read alike, the source gives them in different places.

Assay [1] addresses histamine receptor H1 (Homo sapiens, UniProt P35367). In words: Histamine H1 radioligand binding ([3H]Pyrilamine). The settings on record: read-out: Histamine Binding (1 μM) H1, percent inhibition of specific binding, 1 μM. As for the experimental part: To evaluate in radioligand binding assays the activity of compounds of the invention, human recombinant histamine H1 receptor expressed in Chinese hamster ovary (CHO) cells (De Backer, M. D. et al., Biochem. Biophys. Res. Comm. 197(3):1601, 1993) in a modified Tris-HCl buffer (50 mM Tris-HCl, pH 7.4, 2 mM MgCl2, 100 mM NaCl, 250 mM Sucrose) was used. Compounds of the invention were incubated with 1.2 nM [^3H]Pyrilamine for 180 min. at 25° C. Non-specific binding was estimated in the presence of 1 μM pyrilamine. Receptor proteins were filtered and washed, the filters were then counted to determine [^3H]Pyrilamine specifically bound. Compounds were screened at 1 μM or lower, using 1% DMSO as vehicle. Biochemical assay results are presented as the percent inhibition of specific binding in Table 8.

The target of assay [2] is human dopamine D2L receptor (Homo sapiens, UniProt P14416). In words: Dopamine D2L radioligand binding ([3H]Spiperone). Particulars: compound at 1 μM. An excerpt:
Non-specific binding was estimated in the presence of […] Haloperidol. Receptor proteins were filtered and washed, the filters were then counted to determine [^3H]Spiperone specifically bound. […] Biochemical assay results are presented as the percent inhibition of specific binding in Table 9.

Setting [3] is: […] [3H]Spiperone, read-out: Inhibition of ligand binding, Dopamine D2L (percent inhibition of specific binding).
Where [4] appears, read: percent inhibition of specific binding, read-out: Inhibition of ligand binding, Dopamine D2L.

Chain of human dopamine D2L receptor (P14416 whole entry): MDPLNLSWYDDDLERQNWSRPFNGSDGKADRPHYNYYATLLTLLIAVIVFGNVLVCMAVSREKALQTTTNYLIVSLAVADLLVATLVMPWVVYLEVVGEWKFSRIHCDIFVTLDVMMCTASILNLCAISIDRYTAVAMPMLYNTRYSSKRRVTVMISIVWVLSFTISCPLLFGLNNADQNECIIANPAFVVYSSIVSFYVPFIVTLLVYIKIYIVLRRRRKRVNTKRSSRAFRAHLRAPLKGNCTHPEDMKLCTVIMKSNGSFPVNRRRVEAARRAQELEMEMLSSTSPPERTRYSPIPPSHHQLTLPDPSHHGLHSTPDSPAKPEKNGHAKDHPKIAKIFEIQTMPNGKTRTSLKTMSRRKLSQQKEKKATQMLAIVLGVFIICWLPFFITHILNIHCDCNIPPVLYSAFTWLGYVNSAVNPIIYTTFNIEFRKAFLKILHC
Chain of histamine receptor H1 (P35367 whole entry): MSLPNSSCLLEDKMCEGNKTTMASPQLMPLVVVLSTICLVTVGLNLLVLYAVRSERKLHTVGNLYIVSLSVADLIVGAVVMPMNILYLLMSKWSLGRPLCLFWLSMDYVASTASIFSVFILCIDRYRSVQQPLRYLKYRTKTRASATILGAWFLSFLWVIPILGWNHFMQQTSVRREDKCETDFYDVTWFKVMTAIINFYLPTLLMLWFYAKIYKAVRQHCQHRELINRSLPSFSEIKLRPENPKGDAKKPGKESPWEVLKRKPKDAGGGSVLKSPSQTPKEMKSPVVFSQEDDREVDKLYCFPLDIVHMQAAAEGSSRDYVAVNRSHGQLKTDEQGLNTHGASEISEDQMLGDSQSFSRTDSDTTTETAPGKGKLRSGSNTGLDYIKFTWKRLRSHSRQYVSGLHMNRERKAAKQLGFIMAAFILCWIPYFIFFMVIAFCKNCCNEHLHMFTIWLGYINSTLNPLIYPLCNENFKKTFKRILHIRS

One may read the inhibition as the change of the read-out against control, counted positive when it falls. For the molecule `C/C(=C\n1c2c(c3cc(Cl)ccc31)CN(CCC(C)(C)O)CC2)c1ccc(F)cc1` [compound 414, (E)-4-(8-chloro-5-(2-(4-fluorophenyl)prop-1-enyl)-3,4-dihydro-1H-pyrido[4,3-b]indol-2(5H)-yl)-2-methylbutan-2-ol], the values for the inhibition at 1 µM in assay [1] and in assay [2] (setting [3]) were 61% and 100%, respectively.

Turning to `CN1CCc2c(c3cc(Cl)ccc3n2/C=C(\c2ccccc2)c2ccncc2)C1` [Compound No. 460, (E)-8-chloro-2-methyl-5-(2-phenyl-2-(pyridin-4-yl)vinyl)-2,3,4,5-tetrahydro-1H-pyrido[4,3-b]indole], the inhibition at 1 µM in assay [1] worked out at 17%; in assay [2] (setting [3]) it was 67%.

For `Cc1ccc2c(c1)c1c(n2C#Cc2ccncc2)CCN(C)C1` [Compound No. 495, 2,8-dimethyl-5-(pyridin-4-ylethynyl)-2,3,4,5-tetrahydro-1H-pyrido[4,3-b]indole], the inhibition at 1 µM in assay [1] is 52%; in assay [2] (setting [3]) it was 58%.

As for `C/C(=C\n1c2c(c3cc(C)ccc31)C(C)N(C)C(C)C2)c1ccncc1` (stereo not drawn) [Compound 285, (E)-1,2,3,8-tetramethyl-5-(2-(pyridin-4-yl)prop-1-enyl)-2,3,4,5-tetrahydro-1H-pyrido[4,3-b]indole], the inhibition at 1 µM was determined as 21% in assay [1] and 53% in assay [2] (setting [4]).

In the case of `CN1CCc2c(c3cc(Cl)ccc3n2C=C(c2ccccc2)c2ccccc2)C1` [compound 407, 8-chloro-5-(2,2-diphenylvinyl)-2-methyl-2,3,4,5-tetrahydro-1H-pyrido[4,3-b]indole], the inhibition at 1 µM came to 10% in assay [1] and 74% in assay [2] (setting [3]).

For the molecule `C/C(=C\n1c2c(c3cc(Cl)ccc31)CN(C)CC2)c1cnccn1` [Compound 333, (E)-8-chloro-2-methyl-5-(2-(pyrazin-2-yl)prop-1-enyl)-2,3,4,5-tetrahydro-1H-pyrido[4,3-b]indole], the inhibition at 1 µM in assay [1] came to 29%; in assay [2] (setting [4]), 51%.

Take `Cc1ccc2c(c1)c1c(n2/C=C(\F)c2cscn2)CCN(C)C1` [compound 438, (Z)-4-(2-(2,8-dimethyl-3,4-dihydro-1H-pyrido[4,3-b]indol-5(2H)-yl)-1-fluorovinyl)thiazole]: the inhibition at 1 µM in assay [1] amounted to 92%; in assay [2] (setting [3]), 17%.

Turning to `C/C(=C\n1c2c(c3cc(Cl)ccc31)CN(C)[C@@H](C)C2)c1ccncc1` [compound 391, (S,E)-8-chloro-2,3-dimethyl-5-(2-(pyridin-4-yl)prop-1-enyl)-2,3,4,5-tetrahydro-1H-pyrido[4,3-b]indole], the inhibition at 1 µM came to 84% in assay [1] and 72% in assay [2] (setting [3]).

As for `CC(=O)N(C)c1ccc2c(c1)c1c(n2/C=C(\C)c2ccncc2)CCN(C)C1` [compound 439, (E)-N-methyl-N-(2-methyl-5-(2-(pyridin-4-yl)prop-1-enyl)-2,3,4,5-tetrahydro-1H-pyrido[4,3-b]indol-8-yl)acetamide], the inhibition at 1 µM in assay [1] came out at 9%; in assay [2] (setting [3]) it was 16%.

On to `Cc1ccc2c(c1)c1c(n2C#Cc2ccncn2)CCN(C)C1` [Compound No. 499, 2,8-dimethyl-5-(pyrimidin-4-ylethynyl)-2,3,4,5-tetrahydro-1H-pyrido[4,3-b]indole], for which the inhibition at 1 µM amounted to 26% in assay [1] and 18% in assay [2] (setting [3]).

Turning to `Cc1ccc2c(c1)c1c(n2C#Cc2ccoc2)CCN(C)C1` [Compound No. 492, 5-(furan-3-ylethynyl)-2,8-dimethyl-2,3,4,5-tetrahydro-1H-pyrido[4,3-b]indole], the inhibition at 1 µM was 68% in assay [1] and 60% in assay [2] (setting [3]).

Take `Cc1ccc2c(c1)c1c(n2CC(C)(O)c2ccncc2)CCN(CC(F)(F)F)C1` (stereo not drawn) [Compound 341, 1-(8-methyl-2-(2,2,2-trifluoroethyl)-3,4-dihydro-1H-pyrido[4,3-b]indol-5(2H)-yl)-2-(pyridin-4-yl)propan-2-ol]: the inhibition at 1 µM is 11% in assay [1] and 2% in assay [2] (setting [4]).

In the case of `C/C(=C\n1c2c(c3cc(Cl)ccc31)CN(C)CC2)c1cccs1` [Compound 338, (E)-8-chloro-2-methyl-5-(2-(thiophen-2-yl)prop-1-enyl)-2,3,4,5-tetrahydro-1H-pyrido[4,3-b]indole], the inhibition at 1 µM is 83% in assay [1] and 97% in assay [2] (setting [4]).

For `C/C(=C\n1c2c(c3cc(N(C)C)ccc31)CN(C)CC2)c1ccncc1` [compound 450, (E)-N,N,2-trimethyl-5-(2-(pyridin-4-yl)prop-1-enyl)-2,3,4,5-tetrahydro-1H-pyrido[4,3-b]indol-8-amine], the inhibition at 1 µM in assay [1] came out at 43%; in assay [2] (setting [3]), 35%.

For the molecule `C/C(=C\n1c2c(c3cc(Cl)ccc31)CN(C)CC2)C1CCCCC1` [Compound 367, (E)-8-chloro-5-(2-cyclohexylprop-1-enyl)-2-methyl-2,3,4,5-tetrahydro-1H-pyrido[4,3-b]indole], the figures for the inhibition at 1 µM in assay [1] and in assay [2] (setting [3]) were 64% and 48%, respectively.

`C/C(=C\n1c2c(c3cc(N4CCCC4)ccc31)CN(C)CC2)c1ccncc1` [compound 446, (E)-2-methyl-5-(2-(pyridin-4-yl)prop-1-enyl)-8-(pyrrolidin-1-yl)-2,3,4,5-tetrahydro-1H-pyrido[4,3-b]indole]: the inhibition at 1 µM is -4% in assay [1] and 42% in assay [2] (setting [3]).

As to `CCCCNc1ccc2c(c1)c1c(n2/C=C(\C)c2ccc(F)cc2)CCN(C)C1` [compound 432, (E)-N-butyl-5-(2-(4-fluorophenyl)prop-1-enyl)-2-methyl-2,3,4,5-tetrahydro-1H-pyrido[4,3-b]indol-8-amine], the inhibition at 1 µM in assay [1] came to 46%; in assay [2] (setting [3]), 79%.

On to `C/C(=C\n1c2c(c3cc(Cl)ccc31)CN(C(=O)OCc1ccccc1)CC2)c1ccncc1` [compound 396, (E)-benzyl 8-chloro-5-(2-(pyridin-4-yl)prop-1-enyl)-3,4-dihydro-1H-pyrido[4,3-b]indole-2(5H)-carboxylate], for which the inhibition at 1 µM is 15% in assay [1] and 7% in assay [2] (setting [3]).

As to `Cc1ccc2c(c1)c1c(n2CC(C)(O)c2ccncc2)CCN(C2CC2)C1` (stereo not drawn) [Compound 342, 1-(2-cyclopropyl-8-methyl-3,4-dihydro-1H-pyrido[4,3-b]indol-5(2H)-yl)-2-(pyridin-4-yl)propan-2-ol], the values for the inhibition at 1 µM in assay [1] and in assay [2] (setting [4]) were 48% and 11%, respectively.

Turning to `C/C(=C\n1c2c(c3cc(C)ccc31)CN(CC(F)(F)F)CC2)c1ccncc1` [Compound 291, (E)-8-methyl-5-(2-(pyridin-4-yl)prop-1-enyl)-2-(2,2,2-trifluoroethyl)-2,3,4,5-tetrahydro-1H-pyrido[4,3-b]indole], the inhibition at 1 µM in assay [1] was -4%; in assay [2] (setting [4]), 0%.

As for `C/C(=C\n1c2c(c3cc(C)ccc31)CNCC2)c1cc[n+](C)cc1` [Compound No. 471, (E)-1-methyl-4-(1-(8-methyl-3,4-dihydro-1H-pyrido[4,3-b]indol-5(2H)-yl)prop-1-en-2-yl)pyridinium], the inhibition at 1 µM in assay [1] and in assay [2] (setting [3]) was 2% each time.

Take `CNC(=O)c1cccc(/C(C)=C/n2c3c(c4cc(C)ccc42)CN(C)CC3)c1` [Compound No. 472, (E)-3-(1-(2,8-dimethyl-3,4-dihydro-1H-pyrido[4,3-b]indol-5(2H)-yl)prop-1-en-2-yl)-N-methylbenzamide]: the inhibition at 1 µM in assay [1] came to 21%; in assay [2] (setting [3]), 53%.

Take `Cc1ccc2c(c1)c1c(n2C#Cc2cccc(N(C)C)c2)CCN(C)C1` [Compound No. 489, 3-((2,8-dimethyl-3,4-dihydro-1H-pyrido[4,3-b]indol-5(2H)-vyl)ethynyl)-N,N-dimethylaniline]: the inhibition at 1 µM in assay [1] was 13%; in assay [2] (setting [3]), 9%.

For `CCCc1ccc(C#Cn2c3c(c4cc(Cl)ccc42)CN(C)CC3)cn1` [Compound No. 487, 8-chloro-2-methyl-5-((6-propylpyridin-3-yl)ethynyl)-2,3,4,5-tetrahydro-1H-pyrido[4,3-b]indole], the values for the inhibition at 1 µM in assay [1] and in assay [2] (setting [3]) were 75% and 17%, respectively.

Consider `CC/C(=C\n1c2c(c3cc(Cl)ccc31)CN(C)CC2)c1ccncc1` [Compound 284, (E)-8-chloro-2-methyl-5-(2-(pyridin-4-yl)but-1-enyl)-2,3,4,5-tetrahydro-1H-pyrido[4,3-b]indole], for which the figures for the inhibition at 1 µM in assay [1] and in assay [2] (setting [4]) were 40% and 84%, respectively.

For the molecule `C/C(=C\n1c2c(c3cc(C)ccc31)CN(C)CC2)c1cccc(C(=O)N(C)C)c1` [compound 457, (E)-3-(1-(2,8-dimethyl-3,4-dihydro-1H-pyrido[4,3-b]indol-5(2H)-yl)prop-1-en-2-yl)-N,N-dimethylbenzamide], the inhibition at 1 µM turned out to be 37% in assay [1] and 53% in assay [2] (setting [3]).

`CNC(=O)c1ccc(/C(F)=C(/c2ccc(C(=O)NC)c(F)c2)n2c3c(c4cc(C)ccc42)CN(C)CC3)cc1F` [compound 423, (E)-4,4′-(1-(2,8-dimethyl-3,4-dihydro-1H-pyrido[4,3-b]indol-5(2H)-yl)-2-fluoroethene-1,2-diyl)bis(2-fluoro-N-methylbenzamide)]: the inhibition at 1 µM was 31% in assay [1] and -10% in assay [2] (setting [3]).
